Reference: PMC8329922, “Credentialing and Pharmacologically Targeting PTP4A3 Phosphatase as a Molecular Target for Ovarian Cancer” (Biomolecules, 2021)

Experiments:
[1] = target: T1, recombinant human PTP4A3 (Homo sapiens, UniProt O75365); assay: In vitro phosphatase inhibition (DiFMUP substrate); type: biochemical; conditions: Mean ± SEM, N = 3, * N = 6, ** N = 8; DiFMUP 12 μM, 25 °C, 30 min; read-out: in vitro IC50 against recombinant human PTP4A3
T1 construct: The cDNA for the full-length ptp4a3 was obtained from OriGene (SC308739); His6 (N); host or cells: E. coli BL21 (DE3)
T1 sequence (O75365 whole entry): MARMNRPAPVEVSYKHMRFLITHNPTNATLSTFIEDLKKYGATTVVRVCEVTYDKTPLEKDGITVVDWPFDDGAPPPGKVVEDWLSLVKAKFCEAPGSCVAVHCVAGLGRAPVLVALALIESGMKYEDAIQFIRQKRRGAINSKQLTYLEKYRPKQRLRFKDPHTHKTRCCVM

[2] = test system: COV362-47R; assay: Cytotoxicity, 3D spheroids, CellTiter Glo 3D; type: cell-based; conditions: Homo sapiens, 48 h exposure, carboplatin resistant line, read-out: EC50 (μM ± SEM) COV362-47R
[3] = test system: OVCAR4; assay: Cytotoxicity, 3D spheroids, CellTiter Glo 3D; type: cell-based; conditions: Homo sapiens, OVCAR-4, 48 h exposure, read-out: EC50 (μM ± SEM) OVCAR4
[4] = test system: Kuramochi; assay: Cytotoxicity, 3D spheroids, CellTiter Glo 3D; type: cell-based; conditions: Homo sapiens, 48 h exposure, read-out: EC50 (μM ± SEM) Kuramochi
[5] = test system: V581; assay: Cytotoxicity, 3D spheroids, CellTiter Glo 3D; type: cell-based; conditions: Homo sapiens, 48 h exposure, patient-derived cell line, read-out: EC50 (μM ± SEM) V581
[6] = test system: OVSAHO; assay: Cytotoxicity, 3D spheroids, CellTiter Glo 3D; type: cell-based; conditions: Homo sapiens, 48 h exposure, read-out: EC50 (μM ± SEM) OVSAHO
[7] = test system: COV362; assay: Cytotoxicity, 3D spheroids, CellTiter Glo 3D; type: cell-based; conditions: Homo sapiens, 48 h exposure, read-out: EC50 (μM ± SEM) COV362
[8] = test system: COV362-47R cells; assay: Viability assay with 3-(4,5-dimethylthiazol-2-yl)-2,5-diphenyltetrazolium bromide; type: cell-based, human; conditions: MTT viability assay, read-out: EC50 (concentration that caused a 50% cytotoxicity)
[9] = test system: COV362 parent line; assay: as above; type: cell-based, human; conditions: MTT viability assay, read-out: EC50 (concentration that caused a 50% cytotoxicity)

| Compound | IC50 [1] [µM] | EC50 [2] [µM] | EC50 [3] [µM] | EC50 [4] [µM] | EC50 [5] [µM] | EC50 [6] [µM] | EC50 [7] [µM] | EC50 [8] [µM] | EC50 [9] [µM] |
| --- | --- | --- | --- | --- | --- | --- | --- | --- | --- |
| N=C1C(=O)NC(=O)c2c(-c3ccccc3)csc21 [EJR-912-41] | 0.0637 ± 0.0073 | > 50 | 26.9 ± 3.9 | 7 | > 50 | 38.7 ± 1.7 | 31.6 ± 6.8 | – | – |
| O=C1NC(=O)c2c(-c3ccccc3)csc2C1=O [EJR-912-43] | 0.0537 ± 0.0124 | > 50 | > 50 | > 50 | > 50 | > 50 | > 50 | – | – |
| Cc1cc2c(s1)C(=O)C(=O)NC2=O [EJR-912-50] | 0.0606 ± 0.006 | > 50 | > 50 | > 50 | > 50 | > 50 | > 50 | – | – |
| Cc1cc2c(s1)C(=N)C(=O)NC2=O [EJR-912-57] | 0.0897 ± 0.014 | > 50 | > 25 | > 50 | > 50 | > 50 | 28.3 ± 3.1 | – | – |
| CN1C(=O)C(=N)c2sc(-c3ccccc3)cc2C1=O [NRT-870-59] | – | > 50 | > 50 | 30.6 | > 50 | > 50 | > 50 | – | – |
| O=C(c1cc(Cc2n[nH]c(=O)c3ccccc23)ccc1F)N1CCN(C(=O)C2CC2)CC1 [Olaparib] | – | > 50 | > 50 | > 50 | > 50 | > 50 | > 50 | – | – |
| CC(=O)O[C@H]1C(=O)[C@@]2(C)[C@H]([C@H](OC(=O)c3ccccc3)[C@]3(O)C[C@H](OC(=O)[C@H](O)[C@@H](NC(=O)c4ccccc4)c4ccccc4)C(C)=C1C3(C)C)[C@]1(OC(C)=O)CO[C@@H]1C[C@@H]2O [Paclitaxel, reference compound] | – | > 5 | > 5 | > 5 | > 5 | > 5 | > 5 | – | – |
| CC[C@@]1(O)C(=O)OCc2c1cc1n(c2=O)Cc2cc3c(CN(C)C)c(O)ccc3nc2-1 [Topotecan, reference compound] | – | 25.3 ± 9.8 | 2.5 ± 0.8 | – | – | 2.5 ± 1.1 | 2.5 ± 0.7 | – | – |
| C[C@]1(c2nc3c(C(N)=O)cccc3[nH]2)CCCN1 [Veliparib, reference compound] | – | > 50 | > 50 | > 50 | > 50 | > 50 | > 50 | – | – |
| N.N.O=C([O-])C1(C(=O)[O-])CCC1.[Pt+2] [carboplatin] | – | – | – | – | – | – | – | ~200 | ~20 |
